Among the test systems are Hs-578T; OVCAR-3; U-251; NCI-H522; SK-MEL-5; HT-29; BT-549; MOLT-4; A498; ACHN; IGROV-1; SW-620; DU-145; K562; SF-268; MDA-N; RPMI-8226; MDA-MB-435; HOP-92.
Holding throughout (experiment): inhibition of tumour cell growth, NCI panel, 48 h

Structures are written as SMILES.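 Following 48 hours of exposure in 96-well plates, responses at five concentrations were used to interpolate endpoints linearly. Here, GI50 denotes the concentration required for 50% inhibition of growth.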 Activity calls are given as the source filed them. Rule as the data show it: active = GI50 up to about 1.1 µM and inactive = higher. Residues, ends and D or L forms follow the SMILES beside them. *: point of attachment. Cbz = O=C(OCc1ccccc1)*; Boc = CC(C)(C)OC(=O)*; OSu = O=C1CCC(=O)N1O*; Bn = c1ccc(C*)cc1 Where only a bound is given, the exact number is not on record here.

`C[C@H](CSC(=O)c1ccccc1)C(=O)N1c2ccccc2C[C@H]1C(=O)O`: the GI50 in the assay on Hs-578T is > 100 µM (inactive); in the assay with OVCAR-3 it was > 100 µM (inactive); in the assay with U-251 it was > 100 µM (inactive); in the assay with NCI-H522 it was 30.4 µM (inactive); in the assay on SK-MEL-5, 67.8 µM (inactive); in the assay on HT-29, 47.2 µM (inactive). The GI50 in the assay on BT-549 is > 100 µM (inactive); with MOLT-4, 75.7 µM (inactive); in the assay with A498 it was > 100 µM (inactive); with ACHN, > 100 µM (inactive); with IGROV-1, > 100 µM (inactive); in the assay on SW-620, 35.2 µM (inactive). In addition, the GI50 in the assay on DU-145 is > 100 µM (inactive); in the assay with K562, 17.5 µM (inactive); with SF-268, > 100 µM (inactive); in the assay on MDA-N it was > 100 µM (inactive).

As to `CC1CC(Nc2ccc(Br)cc2)N(C(=O)c2ccc(Br)cc2)O1` (stereo not given), the GI50 in the assay with Hs-578T is 8.3 µM (inactive); in the assay on OVCAR-3 it was > 10 µM (inactive); with NCI-H522 it was 8.07 µM (inactive); in the assay with SK-MEL-5, > 10 µM (inactive); in the assay on RPMI-8226 it was 4.78 µM (inactive); with HT-29, 1.73 µM (inactive). In addition, the GI50 was > 10 µM (inactive) in the assay with BT-549; 5.74 µM (inactive) with MOLT-4; 0.678 µM (active) with ACHN; 1.09 µM (active) in the assay with MDA-MB-435; 9.73 µM (inactive) with IGROV-1; 1.31 µM (inactive) in the assay on SW-620. The GI50 in the assay on DU-145 was 2.62 µM (inactive); in the assay with K562, 0.435 µM (active); with SF-268, 1.25 µM (inactive); in the assay with MDA-N, 8.93 µM (inactive).

As to `C[C@H]1S[C@H](c2c(F)cccc2F)n2c1nc1ccccc12`, the GI50 in the assay on Hs-578T was 88.7 µM (inactive); with OVCAR-3, 24.2 µM (inactive); with U-251, 54.5 µM (inactive); in the assay with SK-MEL-5, 20.2 µM (inactive); in the assay with RPMI-8226, 37.5 µM (inactive); in the assay on HT-29, 47.3 µM (inactive). The GI50 is 52.8 µM (inactive) in the assay with BT-549; 40.6 µM (inactive) in the assay on MOLT-4; 55.1 µM (inactive) in the assay with ACHN; 34 µM (inactive) with MDA-MB-435; > 100 µM (inactive) in the assay with IGROV-1; 88.1 µM (inactive) with SW-620. For the same compound, the GI50 in the assay with DU-145 was > 100 µM (inactive); in the assay with K562, 35.3 µM (inactive); in the assay on SF-268, 60.5 µM (inactive); in the assay with MDA-N, 59.2 µM (inactive).

Take `O=C(CNS(=O)(=O)Cc1ccccc1)NNc1ccccc1`: the GI50 was > 100 µM (inactive) in the assay with Hs-578T; 49.4 µM (inactive) in the assay with OVCAR-3; > 100 µM (inactive) in the assay with U-251; 80 µM (inactive) in the assay with SK-MEL-5; 18.4 µM (inactive) with RPMI-8226; > 100 µM (inactive) in the assay with HT-29. The GI50 in the assay on BT-549 was > 100 µM (inactive); in the assay on MOLT-4, > 100 µM (inactive); in the assay on ACHN, > 100 µM (inactive); in the assay with MDA-MB-435, 6.95 µM (inactive); in the assay on HOP-92, > 100 µM (inactive); with IGROV-1, 72.8 µM (inactive). Moreover, the GI50 in the assay on SW-620 was 8.05 µM (inactive); with DU-145 it was > 100 µM (inactive); in the assay on K562, 2.5 µM (inactive); in the assay with SF-268 it was > 100 µM (inactive); with MDA-N, 15.7 µM (inactive).

On to `Cc1csc(NNC(N)=O)n1`, for which the GI50 in the assay with Hs-578T, in the assay with OVCAR-3, in the assay on U-251, in the assay with NCI-H522, in the assay with SK-MEL-5 and with HT-29 was > 100 µM (inactive) each time. In addition, the GI50 with BT-549, in the assay on MOLT-4, in the assay with ACHN, in the assay with MDA-MB-435, with HOP-92 and in the assay with IGROV-1 was > 100 µM (inactive) in each case. Moreover, the GI50 in the assay on SW-620, in the assay on DU-145, with SF-268 and in the assay on MDA-N was > 100 µM (inactive) throughout.

Turning to `CC1(C)CCc2c(cc3c(c2O)CCC(C)(C)O3)O1`, the GI50 is > 100 µM (inactive) in the assay on Hs-578T; > 100 µM (inactive) in the assay on OVCAR-3; > 100 µM (inactive) in the assay on U-251; 61.1 µM (inactive) with NCI-H522; 62.8 µM (inactive) in the assay on SK-MEL-5; 35.8 µM (inactive) with HT-29. The GI50 was > 100 µM (inactive) in the assay on BT-549; 62.4 µM (inactive) in the assay on MOLT-4; > 100 µM (inactive) in the assay with A498; > 100 µM (inactive) with ACHN; > 100 µM (inactive) with IGROV-1; > 100 µM (inactive) with SW-620. Moreover, the GI50 with DU-145 is > 100 µM (inactive); with K562 it was 48.8 µM (inactive); in the assay on SF-268 it was > 100 µM (inactive); in the assay with MDA-N it was > 100 µM (inactive).

Consider `C[C@]12CC[C@H](O)CC1=CC[C@@H]1[C@@H]2CC[C@]2(C)/C(=N/OCCN3CCCC3)CC[C@@H]12`, for which the GI50 was 22.9 µM (inactive) in the assay with Hs-578T; 16.5 µM (inactive) in the assay with OVCAR-3; 17.5 µM (inactive) in the assay on U-251; 13 µM (inactive) in the assay on NCI-H522; 14.6 µM (inactive) in the assay with SK-MEL-5; 15.2 µM (inactive) in the assay on RPMI-8226. Also, the GI50 with HT-29 was 2.7 µM (inactive); in the assay with BT-549 it was 16.3 µM (inactive); with MOLT-4 it was 14.1 µM (inactive); with A498, 16 µM (inactive); in the assay with ACHN, 25.5 µM (inactive); in the assay on MDA-MB-435, 15.8 µM (inactive). For the same compound, the GI50 was 16.2 µM (inactive) with IGROV-1; 16.4 µM (inactive) in the assay with SW-620; 4.36 µM (inactive) in the assay on K562; 53.2 µM (inactive) in the assay on SF-268; 17.9 µM (inactive) in the assay on MDA-N.

As to `N#Cc1nc(CCc2nc(C#N)c(N)o2)oc1N`, the GI50 with Hs-578T, in the assay with NCI-H522, with SK-MEL-5, in the assay on RPMI-8226, with HT-29 and in the assay with BT-549 was > 10 µM (inactive) each time. The GI50 in the assay on MOLT-4, in the assay with ACHN, in the assay on MDA-MB-435, with HOP-92, with IGROV-1 and in the assay with SW-620 was > 10 µM (inactive) throughout. Further, the GI50 with DU-145, with K562, in the assay on SF-268 and in the assay with MDA-N was > 10 µM (inactive) throughout.

Turning to `CC(C)(C)OC(=O)NC(Cc1ccc(OCc2ccccc2)cc1)C(=O)NC(CCCCNC(=O)OCc1ccccc1)C(=O)NC(CCCCNC(=O)OCc1ccccc1)C(=O)ON1C(=O)CCC1=O` (stereo not given) (Boc-Tyr(Bn)-Lys(Cbz)-Lys(Cbz)-OSu; configuration not given here), the GI50 in the assay on Hs-578T is 16.4 µM (inactive); in the assay on U-251 it was 16.3 µM (inactive); in the assay on NCI-H522, 16.4 µM (inactive); in the assay with SK-MEL-5, 26 µM (inactive); in the assay on RPMI-8226 it was > 100 µM (inactive); with HT-29 it was 41.1 µM (inactive). In addition, the GI50 was 17.9 µM (inactive) in the assay on BT-549; > 100 µM (inactive) with MOLT-4; 38.5 µM (inactive) in the assay with ACHN; 33.1 µM (inactive) in the assay on MDA-MB-435; 51.2 µM (inactive) in the assay with HOP-92; 31.5 µM (inactive) in the assay on IGROV-1. Further, the GI50 in the assay with DU-145 is 88.5 µM (inactive); in the assay with SF-268 it was 40.2 µM (inactive); with MDA-N it was 16.6 µM (inactive).

For the origin of these results see ChEMBL document CHEMBL1201862, “PubChem BioAssay data set” (2004).
